# Measured values from article PMC5062570 (Nature Communications, 2016).
# Legend:
# retina = details: mouse, in vivo; cited from earlier work
# BACE2 = target: T1, BACE2 (Homo sapiens, UniProt Q9Y5Z0); test: BACE2 purified enzyme fluorescence polarization assay; type: biochemical; details: purified human enzyme, fluorescence polarization
# T1 construct: purchased R&D Systems 4097-AS
# T1 sequence (Q9Y5Z0 63-518): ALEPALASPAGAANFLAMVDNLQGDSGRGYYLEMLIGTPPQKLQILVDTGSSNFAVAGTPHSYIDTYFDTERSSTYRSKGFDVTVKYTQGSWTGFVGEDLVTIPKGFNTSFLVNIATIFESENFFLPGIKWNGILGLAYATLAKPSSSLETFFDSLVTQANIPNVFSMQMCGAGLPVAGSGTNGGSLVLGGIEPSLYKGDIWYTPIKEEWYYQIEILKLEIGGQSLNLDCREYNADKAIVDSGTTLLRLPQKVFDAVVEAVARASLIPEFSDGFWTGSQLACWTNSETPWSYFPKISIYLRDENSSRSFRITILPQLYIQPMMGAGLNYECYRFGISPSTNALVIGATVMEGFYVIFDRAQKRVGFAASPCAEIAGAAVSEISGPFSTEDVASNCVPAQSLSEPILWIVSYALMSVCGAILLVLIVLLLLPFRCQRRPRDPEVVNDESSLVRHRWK
# Procedure: (§1) Purified enzyme inhibition of BACE1, BACE2, CatD and CatE was determined using fluorescence polarization (FP) assays. Briefly, purified enzymes were treated with test compounds (1% DMSO, 37 °C) in the presence of synthetic peptide substrates (150 nM) in 30 μl total volume of NaOAc buffer (100 mM, pH 4.5, 0.0001% Tween-20) in a 384-well plate. After incubation, reactions were stopped and substrate captured by the addition of 1.5 μM streptavidin, and FP measured with an EnVision plate reader (PerkinElmer, excitation 485 nm, emission 530 nm). […] BACE2 activity was assessed with 0.5 nM recombinant BACE2 (R&D Systems 4097-AS) and the same synthetic substrate used for BACE1, with a 1 h incubation time. […] CatE activity was assessed with 1.0 nM recombinant CatE (Creative BioMart CTSE-255H) and the same synthetic substrate used for CatD, with a 1.5 h incubation time.
# Microsomal stability = type: in vitro ADME
# CatD [1] = target: T2, CatD (Homo sapiens, UniProt P07339); test: PF-7802 labelling of HEK293T cells overexpressing CatD; type: cell-based; parameters: Myc-DDK (FLAG) (C); host or cells: HEK293T; details: 1 μM PF-7802, in-gel fluorescence
# Procedure: (§2) Myc-DDK-tagged BACE1 and CatD were purchased as complementary DNA clones in the pCMV6-Entry vector (OriGene, catalogue nos RC209115 and RC200719). Site-directed mutagenesis was performed using the QuikChange II kit (Agilent) according to the manufacturer's protocols. For CatD M307A, forward primer 5′-[…]-3′ and its reverse complement primer were used. For CatD M309A, the forward primer was 5′-[…]-3′. Mutagenesis was confirmed by sequencing using primers provided by OriGene with the cDNA.
# (§3) HEK-293T cells were plated at a density of 1 × 10^6 cells per well, allowed to adhere overnight and then transfected with Lipofectamine 3000 (Life Technologies) according to the manufacturer's protocol. […] Immunoblots were scanned using a LiCor Odyssey.
# Target sequence in this assay (P07339 65-412): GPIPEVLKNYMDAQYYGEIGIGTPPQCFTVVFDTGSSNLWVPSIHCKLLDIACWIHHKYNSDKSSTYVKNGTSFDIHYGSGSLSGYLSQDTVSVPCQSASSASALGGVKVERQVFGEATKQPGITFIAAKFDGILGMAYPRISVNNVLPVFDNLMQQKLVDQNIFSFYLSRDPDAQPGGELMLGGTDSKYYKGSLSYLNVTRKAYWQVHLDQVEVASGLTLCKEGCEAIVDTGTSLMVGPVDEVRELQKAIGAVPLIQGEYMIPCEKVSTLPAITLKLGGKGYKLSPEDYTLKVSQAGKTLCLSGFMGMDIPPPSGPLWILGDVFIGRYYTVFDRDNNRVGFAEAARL
# BACE1 [2] = target: T3, BACE1 (Homo sapiens, UniProt P56817); test: BACE1 purified enzyme fluorescence polarization assay; type: biochemical; parameters: His (C); made in house; host or cells: CHO-K1; details: purified human enzyme, fluorescence polarization, peptide substrate
# Procedure: as §1
# Target sequence in this assay (P56817 46-457): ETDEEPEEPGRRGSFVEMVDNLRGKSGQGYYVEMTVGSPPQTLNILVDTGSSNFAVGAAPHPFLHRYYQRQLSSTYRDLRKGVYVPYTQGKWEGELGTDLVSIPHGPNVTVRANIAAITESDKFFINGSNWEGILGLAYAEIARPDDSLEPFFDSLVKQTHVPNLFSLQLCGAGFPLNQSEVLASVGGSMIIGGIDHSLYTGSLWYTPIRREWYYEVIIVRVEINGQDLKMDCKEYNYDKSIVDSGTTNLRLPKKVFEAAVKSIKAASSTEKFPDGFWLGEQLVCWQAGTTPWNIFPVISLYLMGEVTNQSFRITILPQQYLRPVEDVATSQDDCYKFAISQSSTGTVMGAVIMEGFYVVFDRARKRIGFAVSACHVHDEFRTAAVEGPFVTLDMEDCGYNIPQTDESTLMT
# BACE1 [3] = target: T3, BACE1; test: BACE1 biochemical cellular assay (sAPPβ ELISA in H4 cells overexpressing APP695); type: cell-based; parameters: endogenous in cells; host or cells: H4 human neuroglioma cells overexpressing human APP695; details: sAPPβ ELISA, H4 neuroglioma cells with human wild-type APP
# Procedure: Cellular inhibition of BACE1 was determined by measuring sAPPβ, the primary cleavage product of BACE-1, in H4 human neuroglioma cells overexpressing the wild-type human APP695. […] The colorimetric reaction was read by an EnVision plate reader (PerkinElmer).
# Target sequence in this assay (P56817 46-501): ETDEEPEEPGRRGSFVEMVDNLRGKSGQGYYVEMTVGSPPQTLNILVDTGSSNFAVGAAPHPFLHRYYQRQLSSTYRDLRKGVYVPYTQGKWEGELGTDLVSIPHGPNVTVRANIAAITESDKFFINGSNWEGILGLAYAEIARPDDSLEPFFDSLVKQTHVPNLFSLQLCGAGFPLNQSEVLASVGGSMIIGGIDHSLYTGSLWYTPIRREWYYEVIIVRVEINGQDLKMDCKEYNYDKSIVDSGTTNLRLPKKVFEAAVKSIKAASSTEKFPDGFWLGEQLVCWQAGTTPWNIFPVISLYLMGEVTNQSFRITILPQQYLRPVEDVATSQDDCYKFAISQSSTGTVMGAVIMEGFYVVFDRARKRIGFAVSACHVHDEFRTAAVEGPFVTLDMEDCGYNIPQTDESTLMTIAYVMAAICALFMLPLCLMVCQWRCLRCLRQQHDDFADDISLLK
# BACE1 [4] = target: T3, BACE1; test: PF-7802 labelling of HEK293T cells overexpressing BACE1; type: cell-based; parameters: endogenous in cells; host or cells: H4 human neuroglioma cells overexpressing human APP695; details: 1 μM PF-7802, in-gel fluorescence
# Procedure: as §2, §3
# Target sequence in this assay (P56817 46-501): as above
# CatD [5] = target: T2, CatD; test: CatD purified enzyme fluorescence polarization assay; type: biochemical; parameters: final maturation into a non-covalently associated heavy chain and light chain; purchased Sigma C8696; host or cells: human liver; details: purified human enzyme, fluorescence polarization, substrate-based
# Procedure: as §1
# Target sequence in this assay (P07339 65-162 limits assumed): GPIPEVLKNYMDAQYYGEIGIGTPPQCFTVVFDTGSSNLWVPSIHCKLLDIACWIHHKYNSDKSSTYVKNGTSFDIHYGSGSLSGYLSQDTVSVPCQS
# Target sequence in this assay (P07339 169-412 limits assumed): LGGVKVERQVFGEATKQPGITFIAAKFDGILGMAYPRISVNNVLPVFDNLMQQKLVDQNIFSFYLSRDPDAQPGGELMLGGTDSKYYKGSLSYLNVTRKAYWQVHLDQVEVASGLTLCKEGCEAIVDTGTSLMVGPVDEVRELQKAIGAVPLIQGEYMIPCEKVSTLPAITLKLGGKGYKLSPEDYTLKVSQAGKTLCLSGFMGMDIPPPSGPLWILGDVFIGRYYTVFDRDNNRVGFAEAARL
smiles,measurement,setting,value
C[C@@H](NC(=O)c1cc(C(=O)N[C@@H](Cc2ccccc2)[C@H](O)CNC2CC2)cc(N(C)S(C)(=O)=O)c1)c1ccccc1 [BACE1 inhibitor IV],Ocular pathology in wild-type mice,retina,could also be induced in vivo in wild-type mice
C#CCOc1ccc(C(=O)c2ccc(COC[C@H]3C[C@H]4CSC(N)=N[C@@]4(c4ccc(F)cc4F)CO3)cc2)cc1 [PF-7802],IC50,BACE2,120 nM
same,Microsomal stability,Microsomal stability,poor microsomal stability
same,PF-7802 labelling in HEK293T cells overexpressing CatD,CatD [1],robust labelling of CatD was observed
same,IC50,BACE1 [2],44 nM
same,IC50,BACE1 [3],320 nM
same,PF-7802 labelling in HEK293T cells overexpressing BACE1,BACE1 [4],indistinguishable from a mock transfected control
same,IC50,CatD [5],1200 nM
